US9005575B2, “Arg-Gly-Asp-conjugated alpha-melanocyte stimulating hormone hybrid peptide for use in diagnosing and treating melanoma, including metastatic melanoma and methods related to same” (STC.UNM, priority 2009, dated 2015)
Where two headings read alike, the source gives them in different places. Positions of bridges follow the written chain, without caps; N, C: chain ends. Non-standard residues stand in square brackets, D forms with d. Residues, ends and D or L forms follow the SMILES beside them.

Test: Biodistribution in B16/F1 melanoma-bearing C57 mice
Type: in vivo
Conditions: female, C57, mouse, iv, total radioactivity; for tissue uptake at 2 h / tissue uptake dose at 2 h: 2 h post-injection
Description: All the animal studies were conducted in compliance with Institutional Animal Care and Use Committee approval. The pharmacokinetics of ^99mTc-RGD-Lys-(Arg^11)CCMSH was determined in B16/F1 melanoma-bearing C57 female mice (Harlan, Indianapolis, Ind.). C57 mice were subcutaneously inoculated on the right flank with 1×10^6 B16/F1 cells. The weight of tumors reached approximately 0.2 g 10 days post cell inoculation. Each melanoma-bearing mouse was injected with 0.037 MBq of ^99mTc-RGD-Lys-(Arg^11)CCMSH via the tail vein. Groups of 5 mice were sacrificed at 0.5, 2, 4 and 24 h post-injection, and tumors and organs of interest were harvested, weighed and counted. Blood values were taken as 6.5% of the whole-body weight. The MC1 receptor specificity of the tumor uptake was determined at 2 h post-injection by co-injecting ^99mTc-RGD-Lys-(Arg^11)CCMSH with 10 μg (6.1 nmol) of unlabeled NDP-MSH, a linear α-MSH peptide analogue with picomolar affinity for the MC1 receptors present on murine melanoma cells. The co-injection of 3.5 μg (6.1 nmol) of RGD peptide was performed to determine the αvβ3 integrin specificity of the tumor uptake 2 h post-injection. Statistical analysis was performed using the Student's t-test for unpaired data.
All the animal studies were conducted in compliance with Institutional Animal Care and Use Committee approval. The pharmacokinetics of ^99mTc-RGD-Arg-(Arg^11)CCMSH was determined in B16/F1 melanoma-bearing C57 female mice (Harlan, Indianapolis, Ind.). C57 mice were subcutaneously inoculated on the right flank with 1×10^6 B16/F1 cells. The weight of tumors reached approximately 0.2 g 10 days post cell inoculation. Each melanoma-bearing mouse was injected with 0.037 MBq of ^99mTc-RGD-Arg-(Arg^11)CCMSH via the tail vein. Groups of 5 mice were sacrificed at 0.5, 2, 4 and 24 h post-injection, and tumors and organs of interest were harvested, weighed and counted. Blood values were taken as 6.5% of the whole-body weight. The MC1 receptor specificity of the tumor uptake was determined at 2 h post-injection by co-injecting ^99mTc-RGD-Arg-(Arg^11)CCMSH with 10 μg (6.1 nmol) of unlabeled NDP-MSH. The co-injection of 3.5 μg (6.1 nmol) of RGD peptide was performed to determine the αvβ3 integrin specificity of the tumor uptake at 2 h post-injection.

- tissue uptake at 0.5 h (blood, 0.037 MBq, 0.5 h post-injection, read-out: Blood, Percentage Injected Dose/gram): 3.64 ± 0.69 %ID/g
- tissue uptake at 2 h (blood, 0.037 MBq, read-out: Blood, Percentage Injected Dose/gram): 0.55 ± 0.47 %ID/g
- tissue uptake at 4 h (blood, 0.037 MBq, 4 h post-injection, read-out: Blood, Percentage Injected Dose/gram): 0.71 ± 0.41 %ID/g
- tissue uptake at 24 h (blood, 0.037 MBq, 24 h post-injection, read-out: Blood, Percentage Injected Dose/gram): 0.24 ± 0.14 %ID/g
- tissue uptake at 2 h (blood, NDP blockade (10 μg NDP-MSH co-injected), read-out: Blood, Percentage Injected Dose/gram): 0.47 ± 0.29 %ID/g
- tissue uptake at 2 h (blood, RGD blockade (3.5 μg RGD co-injected), read-out: Blood, Percentage Injected Dose/gram): 0.04 ± 0.01 %ID/g
- tissue uptake at 0.5 h (bone, 0.037 MBq, 0.5 h post-injection, read-out: Bone, Percentage Injected Dose/gram): 2.01 ± 0.19 %ID/g
- tissue uptake at 2 h (bone, 0.037 MBq, read-out: Bone, Percentage Injected Dose/gram): 0.57 ± 0.15 %ID/g
- tissue uptake at 4 h (bone, 0.037 MBq, 4 h post-injection, read-out: Bone, Percentage Injected Dose/gram): 0.97 ± 0.22 %ID/g
- tissue uptake at 24 h (bone, 0.037 MBq, 24 h post-injection, read-out: Bone, Percentage Injected Dose/gram): 0.9 ± 0.39 %ID/g
- tissue uptake at 2 h (bone, NDP blockade (10 μg NDP-MSH co-injected), read-out: Bone, Percentage Injected Dose/gram): 0.98 ± 0.39 %ID/g
- tissue uptake at 2 h (bone, RGD blockade (3.5 μg RGD co-injected), read-out: Bone, Percentage Injected Dose/gram): 0.52 ± 0.42 %ID/g
- tissue uptake at 0.5 h (brain, 0.037 MBq, 0.5 h post-injection, read-out: Brain, Percentage Injected Dose/gram): 0.16 ± 0.02 %ID/g
- tissue uptake at 2 h (brain, 0.037 MBq, read-out: Brain, Percentage Injected Dose/gram): 0.06 ± 0.02 %ID/g
- tissue uptake at 4 h (brain, 0.037 MBq, 4 h post-injection, read-out: Brain, Percentage Injected Dose/gram): 0.04 ± 0.03 %ID/g
- tissue uptake at 24 h (brain, 0.037 MBq, 24 h post-injection, read-out: Brain, Percentage Injected Dose/gram): 0.06 ± 0.02 %ID/g
- tissue uptake at 2 h (brain, NDP blockade (10 μg NDP-MSH co-injected), read-out: Brain, Percentage Injected Dose/gram): 0.06 ± 0.01 %ID/g
- tissue uptake at 2 h (brain, RGD blockade (3.5 μg RGD co-injected), read-out: Brain, Percentage Injected Dose/gram): 0.04 ± 0.01 %ID/g
- tissue uptake at 0.5 h (heart, 0.037 MBq, 0.5 h post-injection, read-out: Heart, Percentage Injected Dose/gram): 2.36 ± 0.37 %ID/g
- tissue uptake at 2 h (heart, 0.037 MBq, read-out: Heart, Percentage Injected Dose/gram): 0.73 ± 0.27 %ID/g
- tissue uptake at 4 h (heart, 0.037 MBq, 4 h post-injection, read-out: Heart, Percentage Injected Dose/gram): 0.53 ± 0.19 %ID/g
- tissue uptake at 24 h (heart, 0.037 MBq, 24 h post-injection, read-out: Heart, Percentage Injected Dose/gram): 0.34 ± 0.07 %ID/g
- tissue uptake at 2 h (heart, with RGD peptide, 3.5 μg (6.1 nmol) co-injected, RGD blockade (3.5 μg RGD co-injected), read-out: Heart, Percentage Injected Dose/gram): 0.55 ± 0.22 %ID/g
- tissue uptake at 2 h (heart, with unlabeled NDP-MSH, 10 μg (6.1 nmol) co-injected, NDP blockade (10 μg NDP-MSH co-injected), read-out: Heart, Percentage Injected Dose/gram): 0.61 ± 0.21 %ID/g
- tissue uptake dose at 0.5 h (intestines, 0.037 MBq, 0.5 h post-injection, read-out: Intestines, Percentage Injected Dose): 3.19 ± 0.22 %ID
- tissue uptake dose at 2 h (intestines, 0.037 MBq, read-out: Intestines, Percentage Injected Dose): 2.57 ± 0.58 %ID
- tissue uptake dose at 4 h (intestines, 0.037 MBq, 4 h post-injection, read-out: Intestines, Percentage Injected Dose): 2.62 ± 0.57 %ID
- tissue uptake dose at 24 h (intestines, 0.037 MBq, 24 h post-injection, read-out: Intestines, Percentage Injected Dose): 1.01 ± 0.11 %ID
- tissue uptake dose at 2 h (intestines, NDP blockade (10 μg NDP-MSH co-injected), read-out: Intestines, Percentage Injected Dose): 2.34 ± 0.52 %ID
- tissue uptake dose at 2 h (intestines, RGD blockade (3.5 μg RGD co-injected), read-out: Intestines, Percentage Injected Dose): 1.79 ± 0.58 %ID
- tissue uptake at 0.5 h (kidneys, 0.037 MBq, 0.5 h post-injection, read-out: Kidneys, Percentage Injected Dose/gram): 37.2 ± 4.72 %ID/g
- tissue uptake at 2 h (kidneys, 0.037 MBq, read-out: Kidneys, Percentage Injected Dose/gram): 43 ± 8.14 %ID/g
- tissue uptake at 4 h (kidneys, 0.037 MBq, 4 h post-injection, read-out: Kidneys, Percentage Injected Dose/gram): 36.6 ± 11.7 %ID/g
- tissue uptake at 24 h (kidneys, 0.037 MBq, 24 h post-injection, read-out: Kidneys, Percentage Injected Dose/gram): 16.2 ± 4.01 %ID/g
- tissue uptake at 2 h (kidneys, NDP blockade (10 μg NDP-MSH co-injected), read-out: Kidneys, Percentage Injected Dose/gram): 34.8 ± 8.46 %ID/g
- tissue uptake at 2 h (kidneys, RGD blockade (3.5 μg RGD co-injected), read-out: Kidneys, Percentage Injected Dose/gram): 38.5 ± 7.45 %ID/g
- tissue uptake at 0.5 h (liver, 0.037 MBq, 0.5 h post-injection, read-out: Liver, Percentage Injected Dose/gram): 4.21 ± 1.04 %ID/g
- tissue uptake at 2 h (liver, 0.037 MBq, read-out: Liver, Percentage Injected Dose/gram): 3.58 ± 1.08 %ID/g
- tissue uptake at 4 h (liver, 0.037 MBq, 4 h post-injection, read-out: Liver, Percentage Injected Dose/gram): 4.93 ± 0.38 %ID/g
- tissue uptake at 24 h (liver, 0.037 MBq, 24 h post-injection, read-out: Liver, Percentage Injected Dose/gram): 1.89 ± 0.36 %ID/g
- tissue uptake at 2 h (liver, NDP blockade (10 μg NDP-MSH co-injected), read-out: Liver, Percentage Injected Dose/gram): 2.87 ± 0.34 %ID/g
- tissue uptake at 2 h (liver, RGD blockade (3.5 μg RGD co-injected), read-out: Liver, Percentage Injected Dose/gram): 2.3 ± 0.22 %ID/g
- tissue uptake at 0.5 h (lung, 0.037 MBq, 0.5 h post-injection, read-out: Lung, Percentage Injected Dose/gram): 7.55 ± 1.29 %ID/g
- tissue uptake at 2 h (lung, 0.037 MBq, read-out: Lung, Percentage Injected Dose/gram): 2.05 ± 0.52 %ID/g
- tissue uptake at 4 h (lung, 0.037 MBq, 4 h post-injection, read-out: Lung, Percentage Injected Dose/gram): 1.01 ± 0.41 %ID/g
- tissue uptake at 24 h (lung, 0.037 MBq, 24 h post-injection, read-out: Lung, Percentage Injected Dose/gram): 0.76 ± 0.14 %ID/g
- tissue uptake at 2 h (lung, NDP blockade (10 μg NDP-MSH co-injected), read-out: Lung, Percentage Injected Dose/gram): 1.42 ± 0.31 %ID/g
- tissue uptake at 2 h (lung, RGD blockade (3.5 μg RGD co-injected), read-out: Lung, Percentage Injected Dose/gram): 1.21 ± 0.5 %ID/g
- tissue uptake at 0.5 h (muscle, 0.037 MBq, 0.5 h post-injection, read-out: Muscle, Percentage Injected Dose/gram): 1.79 ± 1.14 %ID/g
- tissue uptake at 2 h (muscle, 0.037 MBq, read-out: Muscle, Percentage Injected Dose/gram): 0.21 ± 0.12 %ID/g
- tissue uptake at 4 h (muscle, 0.037 MBq, 4 h post-injection, read-out: Muscle, Percentage Injected Dose/gram): 0.32 ± 0.25 %ID/g
- tissue uptake at 24 h (muscle, 0.037 MBq, 24 h post-injection, read-out: Muscle, Percentage Injected Dose/gram): 0.25 ± 0.05 %ID/g
- tissue uptake at 2 h (muscle, NDP blockade (10 μg NDP-MSH co-injected), read-out: Muscle, Percentage Injected Dose/gram): 0.5 ± 0.12 %ID/g
- tissue uptake at 2 h (muscle, RGD blockade (3.5 μg RGD co-injected), read-out: Muscle, Percentage Injected Dose/gram): 0.28 ± 0.2 %ID/g
- tissue uptake (normal organs except kidneys, 0.037 MBq, after 2 h post-injection, read-out: Normal organ uptakes except for the kidneys): < 3.6 %ID/g
- tissue uptake at 0.5 h (pancreas, 0.037 MBq, 0.5 h post-injection, read-out: Pancreas, Percentage Injected Dose/gram): 1.02 ± 0.36 %ID/g
- tissue uptake at 2 h (pancreas, 0.037 MBq, read-out: Pancreas, Percentage Injected Dose/gram): 0.36 ± 0.2 %ID/g
- tissue uptake at 4 h (pancreas, 0.037 MBq, 4 h post-injection, read-out: Pancreas, Percentage Injected Dose/gram): 0.37 ± 0.12 %ID/g
- tissue uptake at 24 h (pancreas, 0.037 MBq, 24 h post-injection, read-out: Pancreas, Percentage Injected Dose/gram): 0.19 ± 0.09 %ID/g
- tissue uptake at 2 h (pancreas, NDP blockade (10 μg NDP-MSH co-injected), read-out: Pancreas, Percentage Injected Dose/gram): 0.37 ± 0.22 %ID/g
- tissue uptake at 2 h (pancreas, RGD blockade (3.5 μg RGD co-injected), read-out: Pancreas, Percentage Injected Dose/gram): 0.32 ± 0.17 %ID/g
- tissue uptake at 0.5 h (skin, 0.037 MBq, 0.5 h post-injection, read-out: Skin, Percentage Injected Dose/gram): 4.55 ± 1.01 %ID/g
SMILES: CC(C)[C@H](NC(=O)[C@@H]1CCCN1C(=O)[C@H](CCCNC(=N)N)NC(=O)[C@H](CS)NC(=O)[C@H](Cc1c[nH]c2ccccc12)NC(=O)[C@H](CCCNC(=N)N)NC(=O)[C@@H](Cc1ccccc1)NC(=O)[C@H](Cc1c[nH]cn1)NC(=O)[C@H](CCC(=O)O)NC(=O)[C@H](CS)NC(=O)[C@H](CS)NC(=O)[C@H](CCCNC(=N)N)NC(=O)[C@@H]1CC(=O)N[C@@H](CCCNC(=N)N)C(=O)NCC(=O)N[C@@H](CC(=O)O)C(=O)N[C@H](Cc2ccc(O)cc2)C(=O)N1)C(N)=O [^99mTc-RGD-Arg-(Arg^11)CCMSH, metal not drawn] (RGD[dY]DRCCEH[dF]RWCRPV-NH2; lactam N-5)
